Reference: ChEMBL document CHEMBL1158549, “Synthesis and evaluation of a series of C5'-substituted duocarmycin SA analogs” (Bioorg Med Chem Lett, 2010)

Tested on: L1210
Experiment: Cytotoxicity against mouse L1210 cells
Type: functional, cell-based

SMILES	IC50
COC(=O)c1cc2c([nH]1)C(=O)C=C1N(C(=O)c3cc4cc([N+](=O)[O-])ccc4[nH]3)C[C@H]3C[C@]123	0.041 nM
COC(=O)c1cc2c([nH]1)C(=O)C=C1N(C(=O)c3cc4cc(C(F)(F)F)ccc4[nH]3)C[C@H]3C[C@]123	0.065 nM
COC(=O)c1cc2c3c(cc(O)c2[nH]1)N(C(=O)c1cc2cc(C#N)ccc2[nH]1)C[C@H]3CCl	0.009 nM
COC(=O)c1cc2c3c(cc(O)c2[nH]1)N(C(=O)c1cc2cc(C)ccc2[nH]1)C[C@H]3CCl	0.078 nM
COC(=O)c1cc2c3c(cc(O)c2[nH]1)N(C(=O)c1cc2ccccc2[nH]1)C[C@H]3CCl	0.072 nM
COC(=O)c1cc2c([nH]1)C(=O)C=C1N(C(=O)c3cc4cc(C(C)=O)ccc4[nH]3)C[C@H]3C[C@]123	0.043 nM
COC(=O)c1cc2c([nH]1)C(=O)C=C1N(C(=O)c3cc4cc(NC(C)=O)ccc4[nH]3)C[C@H]3C[C@]123	0.083 nM
COC(=O)c1cc2c3c(cc(O)c2[nH]1)N(C(=O)c1cc2cc(C(C)=O)ccc2[nH]1)C[C@H]3CCl	0.038 nM
CNC(=O)c1ccc2[nH]c(C(=O)N3C[C@@H](CCl)c4c3cc(O)c3[nH]c(C(=O)OC)cc43)cc2c1	0.061 nM
COC(=O)c1cc2c([nH]1)C(=O)C=C1N(C(=O)c3cc4cc(OC(F)(F)F)ccc4[nH]3)C[C@H]3C[C@]123	0.049 nM
COC(=O)c1cc2c([nH]1)C(=O)C=C1N(C(=O)c3cc4cc(C#N)ccc4[nH]3)C[C@H]3C[C@]123	0.007 nM
COC(=O)c1cc2c([nH]1)C(=O)C=C1N(C(=O)c3cc4cc(C)ccc4[nH]3)C[C@H]3C[C@]123	0.077 nM
COC(=O)c1cc2c([nH]1)C(=O)C=C1N(C(=O)c3cc4cc(S(C)(=O)=O)ccc4[nH]3)C[C@H]3C[C@]123	0.058 nM
COC(=O)c1cc2c3c(cc(O)c2[nH]1)N(C(=O)c1cc2cc(O)ccc2[nH]1)C[C@H]3CCl	0.05 nM
COC(=O)c1cc2c([nH]1)C(=O)C=C1N(C(=O)c3cc4cc(OC)ccc4[nH]3)C[C@H]3C[C@]123	0.0075 nM
COC(=O)c1cc2c3c(cc(O)c2[nH]1)N(C(=O)c1cc2cc(OC)ccc2[nH]1)C[C@H]3CCl	0.021 nM
COC(=O)c1cc2c([nH]1)C(=O)C=C1N(C(=O)c3cc4ccccc4[nH]3)C[C@H]3C[C@]123	0.068 nM
COC(=O)c1cc2c([nH]1)C(=O)C=C1N(C(=O)c3cc4cc(F)ccc4[nH]3)C[C@H]3C[C@]123	0.054 nM
CNC(=O)c1ccc2[nH]c(C(=O)N3C[C@H]4C[C@@]45C3=CC(=O)c3[nH]c(C(=O)OC)cc35)cc2c1	0.07 nM
COC(=O)c1cc2c3c(cc(O)c2[nH]1)N(C(=O)c1cc2cc(C(F)(F)F)ccc2[nH]1)C[C@H]3CCl	0.075 nM
COC(=O)c1cc2c3c(cc(O)c2[nH]1)N(C(=O)c1cc2cc(F)ccc2[nH]1)C[C@H]3CCl	0.079 nM
COC(=O)c1cc2c([nH]1)C(=O)C=C1N(C(=O)c3cc4cc(OC)c(OC)c(OC)c4[nH]3)C[C@H]3C[C@]123 [DUOCARMYCIN]	0.006 nM
COC(=O)c1cc2c3c(cc(O)c2[nH]1)N(C(=O)c1cc2cc(NC(C)=O)ccc2[nH]1)C[C@H]3CCl	0.081 nM
COC(=O)c1cc2c3c(cc(O)c2[nH]1)N(C(=O)c1cc2cc(S(C)(=O)=O)ccc2[nH]1)C[C@H]3CCl	0.058 nM
COC(=O)c1cc2c([nH]1)C(=O)C=C1N(C(=O)c3cc4cc(O)c(OC)cc4[nH]3)C[C@H]3C[C@]123	0.033 nM
COC(=O)c1cc2c([nH]1)C(=O)C=C1N(C(=O)c3cc4cc(OC)c(O)cc4[nH]3)C[C@H]3C[C@]123	0.007 nM
COC(=O)c1ccc2[nH]c(C(=O)N3C[C@@H](CCl)c4c3cc(O)c3[nH]c(C(=O)OC)cc43)cc2c1	0.048 nM
COC(=O)c1ccc2[nH]c(C(=O)N3C[C@H]4C[C@@]45C3=CC(=O)c3[nH]c(C(=O)OC)cc35)cc2c1	0.047 nM
COC(=O)c1cc2c([nH]1)C(=O)C=C1N(C(=O)c3cc4cc(O)ccc4[nH]3)C[C@H]3C[C@]123	0.053 nM
COC(=O)c1cc2c3c(cc(O)c2[nH]1)N(C(=O)c1cc2cc(OC(F)(F)F)ccc2[nH]1)C[C@H]3CCl	0.085 nM
